Key:
[1] = biological target: Epidermal growth factor receptor (Homo sapiens) (UniProt P00533); test: Inhibition of human EGFR catalytic domain expressed in baculovirus assessed as substrate phosphorylation using fluorescence-labelled peptides as substrate at 0.2 uM after 90 mins by microfluidic peptide phosphorylation assay
[2] = biological target: Ribosomal protein S6 kinase alpha-4 (Homo sapiens) (UniProt O75676); test: Inhibition of human full length MSK2 expressed in baculovirus assessed as substrate phosphorylation using fluorescence-labelled peptides as substrate at 420 uM after 90 mins by microfluidic peptide phosphorylation assay
Chain of Ribosomal protein S6 kinase alpha-4 (Homo sapiens) (O75676 whole entry, looked up, the tested form may be a part): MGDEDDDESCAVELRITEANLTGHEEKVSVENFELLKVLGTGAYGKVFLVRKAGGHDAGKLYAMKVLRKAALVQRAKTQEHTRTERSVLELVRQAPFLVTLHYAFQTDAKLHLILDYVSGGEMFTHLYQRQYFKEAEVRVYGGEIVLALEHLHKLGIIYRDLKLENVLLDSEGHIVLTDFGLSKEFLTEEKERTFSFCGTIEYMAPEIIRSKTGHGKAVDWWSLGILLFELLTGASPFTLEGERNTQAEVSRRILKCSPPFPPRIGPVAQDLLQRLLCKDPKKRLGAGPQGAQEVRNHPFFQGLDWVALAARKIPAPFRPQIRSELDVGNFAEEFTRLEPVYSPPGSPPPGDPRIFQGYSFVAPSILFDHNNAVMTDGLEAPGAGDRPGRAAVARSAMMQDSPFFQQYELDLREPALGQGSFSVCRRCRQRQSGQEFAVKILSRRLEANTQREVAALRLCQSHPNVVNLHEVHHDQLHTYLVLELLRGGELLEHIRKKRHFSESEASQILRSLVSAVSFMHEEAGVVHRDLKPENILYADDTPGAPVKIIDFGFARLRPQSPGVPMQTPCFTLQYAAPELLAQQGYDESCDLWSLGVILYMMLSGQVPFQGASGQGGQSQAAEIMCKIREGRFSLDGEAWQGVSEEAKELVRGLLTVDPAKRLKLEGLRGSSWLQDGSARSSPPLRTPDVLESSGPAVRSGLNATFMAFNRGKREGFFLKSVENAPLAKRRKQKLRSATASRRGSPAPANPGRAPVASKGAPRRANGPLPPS

[3] = biological target: Protein kinase C delta type (Homo sapiens) (UniProt Q05655); test: Inhibition of human truncated PKC delta expressed in baculovirus assessed as substrate phosphorylation using fluorescence-labelled peptides as substrate at 9 uM after 90 mins by microfluidic peptide phosphorylation assay
Chain of Protein kinase C delta type (Homo sapiens) (Q05655 whole entry, looked up, the tested form may be a part): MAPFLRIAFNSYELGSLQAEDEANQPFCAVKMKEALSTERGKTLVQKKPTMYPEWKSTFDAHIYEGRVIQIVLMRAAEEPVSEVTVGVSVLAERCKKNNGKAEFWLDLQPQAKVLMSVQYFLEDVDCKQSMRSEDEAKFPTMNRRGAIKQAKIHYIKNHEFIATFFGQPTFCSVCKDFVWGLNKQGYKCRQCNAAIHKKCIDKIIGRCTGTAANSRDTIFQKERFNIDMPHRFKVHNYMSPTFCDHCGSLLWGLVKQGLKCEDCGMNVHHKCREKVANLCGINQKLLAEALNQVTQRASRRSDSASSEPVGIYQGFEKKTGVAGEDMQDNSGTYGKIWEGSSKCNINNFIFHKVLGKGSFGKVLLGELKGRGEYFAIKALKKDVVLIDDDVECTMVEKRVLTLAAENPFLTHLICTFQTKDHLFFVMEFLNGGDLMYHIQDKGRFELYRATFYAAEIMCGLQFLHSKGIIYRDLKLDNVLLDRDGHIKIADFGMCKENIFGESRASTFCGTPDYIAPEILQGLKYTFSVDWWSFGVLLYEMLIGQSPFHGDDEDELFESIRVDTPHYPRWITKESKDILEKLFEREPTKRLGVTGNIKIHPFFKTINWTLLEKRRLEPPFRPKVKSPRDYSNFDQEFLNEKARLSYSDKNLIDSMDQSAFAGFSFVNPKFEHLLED

[4] = biological target: Calcium/calmodulin-dependent protein kinase type II subunit delta (Homo sapiens) (UniProt Q13557); test: Inhibition of human full length CAMK2D expressed in baculovirus assessed as substrate phosphorylation using fluorescence-labelled peptides as substrate at 9 uM after 90 mins by microfluidic peptide phosphorylation assay
Chain of Calcium/calmodulin-dependent protein kinase type II subunit delta (Homo sapiens) (Q13557 whole entry): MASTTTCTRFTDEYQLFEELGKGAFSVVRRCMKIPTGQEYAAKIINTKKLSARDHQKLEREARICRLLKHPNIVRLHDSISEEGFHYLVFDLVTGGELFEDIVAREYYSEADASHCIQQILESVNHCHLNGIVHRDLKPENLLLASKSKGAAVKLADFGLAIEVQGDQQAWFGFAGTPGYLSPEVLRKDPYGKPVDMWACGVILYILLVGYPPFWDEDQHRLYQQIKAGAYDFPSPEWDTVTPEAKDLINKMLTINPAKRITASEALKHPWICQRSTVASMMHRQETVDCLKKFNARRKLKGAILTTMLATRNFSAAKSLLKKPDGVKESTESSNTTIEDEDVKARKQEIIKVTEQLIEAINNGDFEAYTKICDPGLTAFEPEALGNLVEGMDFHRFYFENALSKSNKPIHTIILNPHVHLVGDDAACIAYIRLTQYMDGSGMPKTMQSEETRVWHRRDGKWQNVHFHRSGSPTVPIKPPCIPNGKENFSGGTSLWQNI

[5] = biological target: T1, Serine/threonine-protein kinase BRSK1 (Homo sapiens) (UniProt Q8TDC3); test: Inhibition of human full length BRSK1 expressed in baculovirus assessed as substrate phosphorylation using fluorescence-labelled peptides as substrate at 2 uM after 90 mins by microfluidic peptide phosphorylation assay
T1 sequence (whole entry): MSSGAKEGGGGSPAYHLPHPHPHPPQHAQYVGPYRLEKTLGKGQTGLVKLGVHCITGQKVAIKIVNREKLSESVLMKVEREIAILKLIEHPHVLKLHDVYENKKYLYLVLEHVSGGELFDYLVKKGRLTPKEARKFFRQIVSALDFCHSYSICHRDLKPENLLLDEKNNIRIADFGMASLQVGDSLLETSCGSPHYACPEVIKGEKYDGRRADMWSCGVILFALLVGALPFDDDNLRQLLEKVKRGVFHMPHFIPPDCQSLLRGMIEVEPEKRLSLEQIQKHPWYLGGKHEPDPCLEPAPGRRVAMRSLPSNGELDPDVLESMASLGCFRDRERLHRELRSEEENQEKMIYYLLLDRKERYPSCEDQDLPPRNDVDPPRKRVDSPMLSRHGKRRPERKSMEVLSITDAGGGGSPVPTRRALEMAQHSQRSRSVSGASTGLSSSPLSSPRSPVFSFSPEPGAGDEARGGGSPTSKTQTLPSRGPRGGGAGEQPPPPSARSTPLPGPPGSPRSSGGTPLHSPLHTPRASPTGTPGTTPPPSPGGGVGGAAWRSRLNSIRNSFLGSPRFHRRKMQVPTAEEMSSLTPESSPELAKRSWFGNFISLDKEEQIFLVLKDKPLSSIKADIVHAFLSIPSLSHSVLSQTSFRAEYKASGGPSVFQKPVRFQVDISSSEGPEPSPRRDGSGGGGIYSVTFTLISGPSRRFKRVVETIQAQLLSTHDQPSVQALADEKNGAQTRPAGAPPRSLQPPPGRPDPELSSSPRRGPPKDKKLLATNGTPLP

[6] = biological target: T2, Cytoplasmic tyrosine-protein kinase BMX (Homo sapiens) (UniProt P51813); test: Inhibition of human full length BMX expressed in baculovirus assessed as substrate phosphorylation using fluorescence-labelled peptides as substrate at 2 uM after 90 mins by microfluidic peptide phosphorylation assay
T2 sequence (whole entry): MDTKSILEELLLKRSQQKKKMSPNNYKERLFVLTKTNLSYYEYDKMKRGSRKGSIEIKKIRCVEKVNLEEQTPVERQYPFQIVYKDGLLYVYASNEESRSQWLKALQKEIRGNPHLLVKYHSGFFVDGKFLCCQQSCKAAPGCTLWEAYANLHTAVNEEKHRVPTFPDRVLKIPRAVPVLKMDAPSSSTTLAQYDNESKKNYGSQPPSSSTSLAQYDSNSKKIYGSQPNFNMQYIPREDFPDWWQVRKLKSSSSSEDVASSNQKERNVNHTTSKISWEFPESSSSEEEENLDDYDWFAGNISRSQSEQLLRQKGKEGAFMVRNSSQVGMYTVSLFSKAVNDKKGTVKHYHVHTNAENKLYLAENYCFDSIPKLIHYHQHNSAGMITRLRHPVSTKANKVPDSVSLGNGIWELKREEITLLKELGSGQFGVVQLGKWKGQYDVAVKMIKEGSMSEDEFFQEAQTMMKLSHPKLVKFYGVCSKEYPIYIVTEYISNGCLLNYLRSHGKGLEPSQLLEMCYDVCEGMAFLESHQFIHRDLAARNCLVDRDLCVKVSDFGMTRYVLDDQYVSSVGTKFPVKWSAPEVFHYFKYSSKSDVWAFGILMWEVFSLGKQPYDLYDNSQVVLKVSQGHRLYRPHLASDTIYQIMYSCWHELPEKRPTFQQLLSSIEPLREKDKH

[7] = biological target: T3, Serine/threonine-protein kinase DCLK2 (Homo sapiens) (UniProt Q8N568); test: Inhibition of human full length DCAMKL2 expressed in baculovirus assessed as substrate phosphorylation using fluorescence-labelled peptides as substrate at 95 uM after 90 mins by microfluidic peptide phosphorylation assay
T3 sequence (whole entry): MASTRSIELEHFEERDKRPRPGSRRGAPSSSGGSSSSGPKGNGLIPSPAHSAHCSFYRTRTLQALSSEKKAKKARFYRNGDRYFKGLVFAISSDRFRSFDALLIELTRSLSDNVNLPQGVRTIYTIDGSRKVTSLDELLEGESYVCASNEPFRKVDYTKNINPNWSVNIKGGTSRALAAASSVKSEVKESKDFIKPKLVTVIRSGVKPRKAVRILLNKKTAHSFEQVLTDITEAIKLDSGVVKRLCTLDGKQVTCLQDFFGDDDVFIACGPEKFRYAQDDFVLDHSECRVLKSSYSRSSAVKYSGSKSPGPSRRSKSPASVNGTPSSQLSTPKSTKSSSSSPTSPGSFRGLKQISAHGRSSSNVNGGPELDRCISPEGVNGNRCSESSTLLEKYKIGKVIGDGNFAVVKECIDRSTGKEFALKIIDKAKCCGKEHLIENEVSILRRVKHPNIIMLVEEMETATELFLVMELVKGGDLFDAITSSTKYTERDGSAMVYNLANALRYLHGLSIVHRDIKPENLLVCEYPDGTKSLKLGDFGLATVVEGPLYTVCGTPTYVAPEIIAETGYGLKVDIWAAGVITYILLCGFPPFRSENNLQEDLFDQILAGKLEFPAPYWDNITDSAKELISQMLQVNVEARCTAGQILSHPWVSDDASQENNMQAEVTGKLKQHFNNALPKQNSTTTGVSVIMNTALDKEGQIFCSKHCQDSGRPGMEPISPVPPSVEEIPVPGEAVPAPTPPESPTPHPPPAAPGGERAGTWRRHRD

Chain of Epidermal growth factor receptor (Homo sapiens) (P00533 whole entry, the tested form may be a part): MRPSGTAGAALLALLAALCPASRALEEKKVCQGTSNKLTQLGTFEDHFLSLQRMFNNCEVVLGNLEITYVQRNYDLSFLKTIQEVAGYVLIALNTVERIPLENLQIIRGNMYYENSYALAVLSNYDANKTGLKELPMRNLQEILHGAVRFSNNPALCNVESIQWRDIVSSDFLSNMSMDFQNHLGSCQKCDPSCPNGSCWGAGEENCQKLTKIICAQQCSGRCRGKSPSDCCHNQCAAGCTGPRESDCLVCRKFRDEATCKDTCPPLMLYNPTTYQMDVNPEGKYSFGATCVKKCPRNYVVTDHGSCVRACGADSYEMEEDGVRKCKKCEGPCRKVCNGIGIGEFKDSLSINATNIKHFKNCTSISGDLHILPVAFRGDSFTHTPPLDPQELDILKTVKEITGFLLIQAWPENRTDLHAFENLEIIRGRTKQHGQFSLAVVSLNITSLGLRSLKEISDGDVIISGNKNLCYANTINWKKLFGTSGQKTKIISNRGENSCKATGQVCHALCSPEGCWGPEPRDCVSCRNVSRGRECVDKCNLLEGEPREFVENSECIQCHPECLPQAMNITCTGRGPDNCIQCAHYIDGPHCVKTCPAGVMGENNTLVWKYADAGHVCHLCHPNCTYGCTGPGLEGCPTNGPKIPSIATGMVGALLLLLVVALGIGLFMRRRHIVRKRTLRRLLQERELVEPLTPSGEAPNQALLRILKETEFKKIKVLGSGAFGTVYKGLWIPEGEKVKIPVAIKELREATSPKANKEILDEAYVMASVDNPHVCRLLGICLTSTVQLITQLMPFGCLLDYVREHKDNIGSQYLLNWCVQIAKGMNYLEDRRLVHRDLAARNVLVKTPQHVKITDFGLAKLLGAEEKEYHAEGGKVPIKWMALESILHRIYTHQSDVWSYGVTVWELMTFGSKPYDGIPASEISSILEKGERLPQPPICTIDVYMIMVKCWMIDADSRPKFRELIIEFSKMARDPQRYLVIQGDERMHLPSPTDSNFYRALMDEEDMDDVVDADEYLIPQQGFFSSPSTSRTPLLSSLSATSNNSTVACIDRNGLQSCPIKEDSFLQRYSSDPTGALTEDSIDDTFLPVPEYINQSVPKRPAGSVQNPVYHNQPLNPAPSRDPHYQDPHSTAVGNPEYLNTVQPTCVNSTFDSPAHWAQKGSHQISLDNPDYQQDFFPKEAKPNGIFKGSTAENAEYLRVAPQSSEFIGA

`Clc1ccc(C2(c3ccc(-c4ncnc5[nH]cnc45)cc3)CCNCC2)cc1` was tested, and the inhibition [1] was 2.5%.
For `c1nc(N2CCOCC2)c2nc[nH]c2n1`, the inhibition [2] was 76%.
With `NCC1CN(c2ncnc3[nH]c4cnccc4c23)CCO1` (configuration not stated) the inhibition [3] was 37.5% and the inhibition [4] was 42.5%.
`NC1CCN(c2ncnc3[nH]ccc23)CC1` was tested, and the inhibition [5] was 14.5% and the inhibition [6] was 2%.
With `NCCc1ccc(-c2ncnc3[nH]cnc23)cc1` the inhibition [7] was 35%.
